In patent publication US20260258064A1 (SIRONAX LTD., priority 2023, published 2026):

molecular target: T1, SARM1 (50-724) (Homo sapiens, UniProt Q6SZW1); assay: SARM1 (50-724) enzymatic assay (LC-MS/MS); format: biochemical; conditions: Purified SARM1 (50-724) 2 nM, NMN as activator, NAD+ as substrate, 1 h at room temperature, read-out: IC50 (SARM1 inhibitory activity)
T1 construct: Purified SARM1 (50-724) with a final concentration of 2 nM was pre-incubated with a test compound
T1 sequence (Q6SZW1 50-724): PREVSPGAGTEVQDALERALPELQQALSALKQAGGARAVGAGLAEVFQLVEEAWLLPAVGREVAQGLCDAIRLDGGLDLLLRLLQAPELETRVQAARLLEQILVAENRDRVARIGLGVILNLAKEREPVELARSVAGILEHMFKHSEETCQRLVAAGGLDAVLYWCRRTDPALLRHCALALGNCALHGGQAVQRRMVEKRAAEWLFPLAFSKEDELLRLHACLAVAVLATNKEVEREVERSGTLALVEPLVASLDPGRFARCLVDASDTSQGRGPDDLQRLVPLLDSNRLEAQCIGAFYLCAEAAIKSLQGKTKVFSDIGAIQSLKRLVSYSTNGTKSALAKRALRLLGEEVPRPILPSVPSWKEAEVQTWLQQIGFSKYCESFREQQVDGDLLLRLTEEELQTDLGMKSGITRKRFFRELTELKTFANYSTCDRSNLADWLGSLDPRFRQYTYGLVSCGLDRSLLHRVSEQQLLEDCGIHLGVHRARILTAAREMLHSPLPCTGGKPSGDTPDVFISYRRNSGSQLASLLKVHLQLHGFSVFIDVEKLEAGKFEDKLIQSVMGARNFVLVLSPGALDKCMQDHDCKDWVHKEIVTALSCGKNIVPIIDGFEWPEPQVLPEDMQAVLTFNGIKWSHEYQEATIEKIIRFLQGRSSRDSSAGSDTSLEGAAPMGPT
How it was run: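 Human SARM1 (50-724), 2 nM, pre-incubated 15 min at room temperature with compound in Dulbecco's PBS. Reaction started with 200 µM NMN (activator) plus […] NAD^+ substrate, run 1 h at room temperature, quenched with 70% acetonitrile. Turnover quantified by LC-MS/MS; IC50 reported.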

| SMILES | IC50 |
| --- | --- |
| Fc1cc(CC(F)(F)F)cc2nc(-c3nncn3-c3cnccc3C(F)(F)F)[nH]c12 [Compound 282, 7-fluoro-5-(2,2,2-trifluoroethyl)-2-(4-(4-(trifluoromethyl)pyridin-3-yl)-4H-1,2,4-triazol-3-yl)-1H-benzo[d]imidazole] | ≤ 100 nM |
| Cc1ccc2[nH]c(-c3cc(C(N)=O)cn3C3CCCC3)nc2c1 [Compound 20, 1-cyclopentyl-5-(5-methyl-1H-benzo[d]imidazol-2-yl)-1H-pyrrole-3-carboxamide] | 500 to 1000 nM |
| CCC(=O)c1cc(F)c2[nH]c(-c3nncn3-c3cnccc3C(F)(F)F)nc2c1 [Compound 452, 1-(4-fluoro-2-(4-(4-(trifluoromethyl)pyridin-3-yl)-4H-1,2,4-triazol-3-yl)-1H-benzo[d]imidazol-6-yl)propan-1-one] | ≤ 100 nM |
| FC1(F)CN(c2c(Cl)ccc3[nH]c(-c4nncn4-c4cnccc4C(F)(F)F)nc23)C1 [Compound 358, 5-chloro-4-(3,3-difluoroazetidin-1-yl)-2-(4-(4-(trifluoromethyl)pyridin-3-yl)-4H-1,2,4-triazol-3-yl)-1H-benzo[d]imidazole] | 100 to 500 nM |
| CC(c1cc(F)c2[nH]c(-c3nncn3-c3cnccc3C(F)(F)F)nc2c1)c1ncco1 (stereo not drawn) [Compound 435, 2-(1-(7-fluoro-2-(4-(4-(trifluoromethyl)pyridin-3-yl)-4H-1,2,4-triazol-3-yl)-1H-benzo[d]imidazol-5-yl)ethyl)oxazole] | ≤ 100 nM |
| Fc1cc(Oc2nccs2)cc2nc(-c3nncn3-c3cnccc3C(F)(F)F)[nH]c12 [Compound 446, 2-((7-fluoro-2-(4-(4-(trifluoromethyl)pyridin-3-yl)-4H-1,2,4-triazol-3-yl)-1H-benzo[d]imidazol-5-yl)oxy)thiazole] | 100 to 500 nM |
| CC1(c2cc(F)c3[nH]c(-c4nncn4-c4cnccc4C(F)(F)F)nc3c2)COC1 [Compound 290, 7-fluoro-5-(3-methyloxetan-3-yl)-2-(4-(4-(trifluoromethyl)pyridin-3-yl)-4H-1,2,4-triazol-3-yl)-1H-benzo[d]imidazole] | ≤ 100 nM |
| Cc1ccc2[nH]c(-c3n[nH]c(=O)n3C3CCCC3)nc2c1 [Compound 14] | > 1000 nM |
| Fc1cc(OC(F)F)cc2nc(-c3nncn3-c3cnccc3C(F)(F)F)[nH]c12 [Compound 293, 5-(difluoromethoxy)-7-fluoro-2-(4-(4-(trifluoromethyl)pyridin-3-yl)-4H-1,2,4-triazol-3-yl)-1H-benzo[d]imidazole] | ≤ 100 nM |
| CC(C)(O)c1ccc2[nH]c(-c3nnccc3-c3cnccc3C(F)(F)F)nc2c1F [Compound 343, 2-(4-Fluoro-2-(4-(4-(trifluoromethyl)pyridin-3-yl)pyridazin-3-yl)-1H-benzo[d]imidazol-5-yl)propan-2-ol] | ≤ 100 nM |
| CC(c1cc(F)c2[nH]c(-c3nncn3-c3cnccc3C(F)(F)F)nc2c1)c1nccs1 (single isomer, unassigned) [Compound 434, 2-(1-(7-fluoro-2-(4-(4-(trifluoromethyl)pyridin-3-yl)-4H-1,2,4-triazol-3-yl)-1H-benzo[d]imidazol-5-yl)ethyl)thiazole] | ≤ 100 nM |
| FC(F)(F)c1ccc2[nH]c(-c3nncn3-c3cnccc3C(F)(F)F)c(-c3ccnnc3)c2c1 [Compound 427, 3-pyridazin-4-yl-5-(trifluoromethyl)-2-[4-[4-(trifluoromethyl)-3-pyridyl]-1,2,4-triazol-3-yl]-1H-indole] | ≤ 100 nM |
| Fc1cc(C2CC2(F)F)cc2nc(-c3nncn3-c3cnccc3C(F)(F)F)[nH]c12 (stereo not drawn) [Compound 298, 5-(2,2-difluorocyclopropyl)-7-fluoro-2-(4-(4-(trifluoromethyl)pyridin-3-yl)-4H-1,2,4-triazol-3-yl)-1H-benzo[d]imidazole] | ≤ 100 nM |

The remaining lines, values ahead:

| IC50 | SMILES |
| --- | --- |
| ≤ 100 nM | Fc1ccc(-n2cnnc2-c2nc3cc(C(F)(F)F)ccc3[nH]2)c(Cl)c1Cl [Example 85] |
| ≤ 100 nM | CC(C)(O)CCOc1ccc(OC(F)(F)F)c(-n2cnnc2-c2nc3cc(C(F)(F)F)ccc3[nH]2)n1 [Compound 256, 2-methyl-4-((5-(trifluoromethoxy)-6-(3-(5-(trifluoromethyl)-1H-benzo[d]imidazol-2-yl)-4H-1,2,4-triazol-4-yl)pyridin-2-yl)oxy)butan-2-ol] |
| 100 to 500 nM | CS(=O)(=O)Cc1nnc(-c2nc3cc(C(F)(F)F)cc(F)c3[nH]2)n1-c1cccc(F)c1Cl (single isomer, unassigned) [Compound 183, 2-(4-(2-Chloro-3-fluorophenyl)-5-((methylsulfonyl)methyl)-4H-1,2,4-triazol-3-yl)-7-fluoro-5-(trifluoromethyl)-1H-benzo[d]imidazole] |
| ≤ 100 nM | C[S+]([O-])Cc1nnc(-c2nc3cc(C(F)(F)F)ccc3[nH]2)n1-c1cccc(Cl)c1Cl (single isomer, unassigned) [Compound 147, 2-(4-(2,3-dichlorophenyl)-5-((methylsulfinyl)methyl)-4H-1,2,4-triazol-3-yl)-5-(trifluoromethyl)-1H-benzo[d]imidazole] |
| ≤ 100 nM | FC(F)(F)c1ccc2[nH]c(-n3nncc3-c3cccc(Cl)c3Cl)nc2c1 [Compound 315, 2-(5-(2,3-dichlorophenyl)-1H-1,2,3-triazol-1-yl)-5-(trifluoromethyl)-1H-benzo[d]imidazole] |
| 100 to 500 nM | FC(F)(F)c1ccc2[nH]c(-c3nccn3-c3cccc(Cl)c3Cl)nc2c1 [Example 57] |
| > 1000 nM | CS(=O)(=O)Cc1nnc(-c2nc3c(F)c(C(F)(F)F)ccc3[nH]2)n1-c1cccc(F)c1Cl (single isomer, unassigned) [Compound 196, 2-(4-(2-chloro-3-fluorophenyl)-5-((methylsulfonyl)methyl)-4H-1,2,4-triazol-3-yl)-4-fluoro-5-(trifluoromethyl)-1H-benzo[d]imidazole] |
| ≤ 100 nM | OCc1cccc(OC(F)(F)F)c1-n1cnnc1-c1nc2cc(C(F)(F)F)ccc2[nH]1 [Compound 261, (3-(trifluoromethoxy)-2-(3-(5-(trifluoromethyl)-1H-benzo[d]imidazol-2-yl)-4H-1,2,4-triazol-4-yl)phenyl)methanol] |
| 100 to 500 nM | O=c1nc(-c2nc3cc(C(F)(F)F)ccc3[nH]2)c(-c2cccc(Cl)c2Cl)c[nH]1 [Example 54] |
| ≤ 100 nM | CC(C)(C#N)c1ccc2[nH]c(-c3nncn3-c3cccc(Cl)c3Cl)nc2c1 [Example 112] |
| ≤ 100 nM | NC(=O)Cn1cc(-c2cccc(F)c2Cl)c(-c2nc3cc(C(F)(F)F)ccc3[nH]2)cc1=O [Compound 199, 2-(5-(2-chloro-3-fluorophenyl)-2-oxo-4-(5-(trifluoromethyl)-1H-benzo[d]imidazol-2-yl)pyridin-1(2H)-yl)acetamide] |
| > 1000 nM | Cn1cc(-c2cccc(Cl)c2Cl)c(-c2nc3cc(C(C)(C)O)ccc3[nH]2)cc1=O [Example 83, 5-(2,3-Dichlorophenyl)-4-(5-(2-hydroxypropan-2-yl)-1H-benzo[d]imidazol-2-yl)-1-methylpyridin-2 (1H)-one] |
| ≤ 100 nM | FC(F)(F)c1ccc2[nH]c(-c3nncn3-c3c(C(F)(F)F)ccn4nccc34)nc2c1 [Compound 309, 5-(trifluoromethyl)-2-(4-(5-(trifluoromethyl)pyrazolo[1,5-a]pyridin-4-yl)-4H-1,2,4-triazol-3-yl)-1H-benzo[d]imidazole] |
| > 1000 nM | Cn1cc(-c2cccc(Cl)c2)c(-c2nc3cc(C(F)(F)F)ccc3[nH]2)cc1=O [Example 76] |
| ≤ 100 nM | Cc1ccc2[nH]c(-c3nncn3-c3cccc(Cl)c3Cl)nc2c1 [Example 5, 2-(4-(2,3-dichlorophenyl)-4H-1,2,4-triazol-3-yl)-5-methyl-1H-benzo[d]imidazole] |
| 100 to 500 nM | FC(F)(F)c1ccc2[nH]c(-c3cnsc3-c3cccc(Cl)c3Cl)nc2c1 [Example 92] |
| ≤ 100 nM | NC(=O)c1cc(-n2cnnc2-c2nc3cc(C(F)(F)F)ccc3[nH]2)c(Cl)cn1 [Compound 211, 5-chloro-4-(3-(5-(trifluoromethyl)-1H-benzo[d]imidazol-2-yl)-4H-1,2,4-triazol-4-yl)picolinamide] |
| 100 to 500 nM | FC(F)(F)c1ccc2[nH]c(-c3nnc(OC4COC4)n3-c3cccc(Cl)c3Cl)nc2c1 [Example 117, 2-(4-(2,3-dichlorophenyl)-5-(oxetan-3-yloxy)-4H-1,2,4-triazol-3-yl)-5-(trifluoromethyl)-1H-benzo[d]imidazole] |
| ≤ 100 nM | Cc1c(Cl)ccnc1-n1cnnc1-c1nc2cc(C(F)(F)F)ccc2[nH]1 [Example 67] |
| ≤ 100 nM | FC(F)(F)c1ccc2[nH]c(-c3nncn3-c3c(Cl)cccc3Cl)nc2c1 [Compound 149, 2-(4-(2,6-dichlorophenyl)-4H-1,2,4-triazol-3-yl)-5-(trifluoromethyl)-1H-benzo[d]imidazole] |
